Source: US9462810B2, “Method for inactivating viruses with slightly acidic arginine” (AJINOMOTO CO., INC., priority 2007, dated 2016)
Like-named read-outs stand apart in the source and are kept apart here.

Legend:
[1] = system: Sendai viruses; test: Sendai virus inactivation by buffer solutions on ice for one hour, residual titer by plaque assay on Vero cells; format: cell-based; conditions: 0.7M, pH 4.0, on ice one hour
[2] = system: influenza virus A/Aichi (H3N2); format: cell-based; conditions: 0.15M, two minutes
[3] = system: herpes simplex viruses type 1, strain F (HSV-1); test: HSV-1 inactivation by buffer solutions on ice for one hour, residual titer by plaque assay on Vero cells; format: cell-based
[4] = system: Influenza A viruses/Aichi; format: cell-based, Influenza A virus
[5] = system: BVDV; conditions: 16 mM, 30° C., 10 hours, pH 4.5; cited from earlier work
[6] = Concentration 0.07 M, pH 4.0 (Example 4)
[7] = Concentration 0.14 M, pH 4.0 (Example 4)
[8] = Concentration 0.21 M, pH 4.0 (Example 4)
[9] = Concentration 0.28 M, pH 4.0 (Example 4)

Compound | Virus Inactivating Efficiency (LRV) ([2]; pH 4.0, 21.6° C.) | Virus Inactivating Efficiency (LRV) ([3]; 0.35M, pH 4.0 (Example 3)) | Virus Inactivating Efficiency (LRV) [3, 6] | Virus Inactivating Efficiency (LRV) [3, 7] | Virus Inactivating Efficiency (LRV) [3, 8] | Virus Inactivating Efficiency (LRV) [3, 9] | Virus Inactivating Efficiency (LRV) ([2]; pH 4.2, 21.6° C.) | also measured
CCCC(=O)N[C@@H](CCCNC(=N)N)C(=O)O [Nα-butyroyl-L-arginine] | 4.05 | >5.5 | 0.7 | 2.2 | 4.3 | 6.0 |  | Virus Inactivating Efficiency (LRV) [1]: >3.7; Virus Inactivating Efficiency (LRV) ([4]; 0.7M, pH 4.0, on ice one hour): 3.7
O=C([O-])CC(O)(CC(=O)[O-])C(=O)[O-].[Na+].[Na+].[Na+] [sodium citrate, reference compound] | 2.66 |  |  |  |  |  | 2.95 | Virus Inactivating Efficiency (LRV) ([2]; pH 3.8, 21.6° C.): 2.74; maximum LRV ([2]; within the pH range of 3.8 to 4.2, 21.6° C.): ≤ 2.95; Virus Inactivating Efficiency (LRV) ([3]; 0.1M, pH 3.5, on ice one hour (Example 1)): >5.7; Virus Inactivating Efficiency (LRV) ([3]; 0.1M, pH 3.5, on ice one hour (Example 1), listed as citrate buffer solution): > 5.7; Virus Inactivating Efficiency (LRV) ([3]; 0.1M, pH 4.0, on ice one hour (Example 1)): 1.5; Virus Inactivating Efficiency (LRV) ([3]; 0.1M, pH 4.3, on ice one hour (Example 1)): 0.1; Virus Inactivating Efficiency (LRV) ([3]; 0.1M, pH 4.3, on ice one hour (Example 1), listed as citrate buffer solution): the inactivation did not take place; Virus Inactivating Efficiency (LRV) ([4]; 0.1M, pH 3.5, on ice one hour): 2.1; Virus Inactivating Efficiency (LRV) ([4]; 0.1M, pH 4.0, on ice one hour): 1.5; Virus Inactivating Efficiency (LRV) ([4]; 0.1M, pH 4.3, on ice one hour): 1.3
CCCCCCCC(=O)O [caprylic acid] |  |  |  |  |  |  |  | titer of BVDV decreased to [5]: 1/10000
O=C1CC[C@@H](C(=O)O)N1 [PCA, pyrrolidone carboxylic acid] | 4.05 |  |  |  |  |  | 2.95 | 
Cl.N=C(N)NCCC[C@H](N)C(=O)O [arginine hydrochloride] | 3.87 | 4.2 | 0.5 | 1.1 | 2.2 | 3.1 |  | Virus Inactivating Efficiency (LRV) ([3]; Concentration 0.35 M, pH 4.0 (Example 4)): 4.5; Virus Inactivating Efficiency (LRV) ([4]; 0.7M, 20 mM sodium acetate, pH 4.0, on ice one hour): 3.7; Virus Inactivating Efficiency (LRV) ([4]; 1M, pH 4.3, on ice one hour): 2.4
